In ChEMBL document CHEMBL5696442, “Discovery of type II inhibitors of TGFβ-activated kinase 1 (TAK1) and mitogen-activated protein kinase kinase kinase kinase 2 (MAP4K2)” (J Med Chem, 2015):

Legend:
[1] = target: Ribosomal protein S6 kinase alpha-3 (Homo sapiens) (UniProt P51812); assay: Inhibition of RSK2 domain2 Lys2 labeling site DLKPSNILYVDESGNPESIR in human Huh-7 cell lysate at 1 uM by KiNativ Profiling analysis relative to control; format: subcellular
[2] = target: Microtubule-associated serine/threonine-protein kinase 3 (Homo sapiens) (UniProt O60307); assay: Inhibition of MAST3 Lys2 labeling site in human Huh-7 cell lysate at 1 uM by KiNativ Profiling analysis relative to control; format: subcellular
[3] = target: T1, Mitogen-activated protein kinase kinase kinase 5 (Homo sapiens) (UniProt Q99683); assay: Inhibition of ASK1 (unknown origin) at 1 uM by Ambit Kinomescan binding assay relative to control
T1 sequence (whole entry): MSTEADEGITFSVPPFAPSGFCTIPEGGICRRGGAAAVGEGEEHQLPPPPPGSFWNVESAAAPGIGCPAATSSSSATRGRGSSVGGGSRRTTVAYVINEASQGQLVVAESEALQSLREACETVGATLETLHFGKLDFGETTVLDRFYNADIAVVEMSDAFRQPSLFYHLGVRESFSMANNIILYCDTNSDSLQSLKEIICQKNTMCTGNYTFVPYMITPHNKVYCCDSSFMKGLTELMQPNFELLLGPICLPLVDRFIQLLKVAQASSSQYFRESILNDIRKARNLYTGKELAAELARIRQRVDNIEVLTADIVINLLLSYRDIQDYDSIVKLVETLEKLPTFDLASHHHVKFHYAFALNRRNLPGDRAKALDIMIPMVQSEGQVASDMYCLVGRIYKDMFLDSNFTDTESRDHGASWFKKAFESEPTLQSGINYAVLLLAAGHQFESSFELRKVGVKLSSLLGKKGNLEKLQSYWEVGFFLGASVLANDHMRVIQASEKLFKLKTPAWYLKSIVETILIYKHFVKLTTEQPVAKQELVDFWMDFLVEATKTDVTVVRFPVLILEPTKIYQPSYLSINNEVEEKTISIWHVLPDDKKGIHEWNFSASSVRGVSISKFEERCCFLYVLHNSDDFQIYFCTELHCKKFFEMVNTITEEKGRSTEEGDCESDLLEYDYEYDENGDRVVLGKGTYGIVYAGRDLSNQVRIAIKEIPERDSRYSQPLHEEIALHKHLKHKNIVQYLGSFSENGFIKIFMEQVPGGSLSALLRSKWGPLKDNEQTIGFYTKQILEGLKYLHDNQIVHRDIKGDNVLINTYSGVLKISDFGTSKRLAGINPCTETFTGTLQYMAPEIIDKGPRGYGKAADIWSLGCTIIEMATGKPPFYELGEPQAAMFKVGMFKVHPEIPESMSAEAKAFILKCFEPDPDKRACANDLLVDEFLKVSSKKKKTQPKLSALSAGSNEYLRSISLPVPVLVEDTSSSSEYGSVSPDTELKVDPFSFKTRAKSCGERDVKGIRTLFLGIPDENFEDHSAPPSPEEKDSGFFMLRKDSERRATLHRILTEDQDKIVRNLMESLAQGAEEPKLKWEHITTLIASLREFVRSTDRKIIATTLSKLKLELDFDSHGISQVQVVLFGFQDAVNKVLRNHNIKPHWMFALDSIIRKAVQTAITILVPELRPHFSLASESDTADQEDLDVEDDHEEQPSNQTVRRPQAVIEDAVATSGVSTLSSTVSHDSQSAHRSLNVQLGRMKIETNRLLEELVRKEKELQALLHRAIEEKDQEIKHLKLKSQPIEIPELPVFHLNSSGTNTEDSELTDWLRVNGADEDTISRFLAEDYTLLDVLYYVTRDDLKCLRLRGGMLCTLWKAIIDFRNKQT

[4] = target: T2, Inhibitor of nuclear factor kappa-B kinase subunit epsilon (Homo sapiens) (UniProt Q14164); assay: Inhibition of IKK-epsilon (unknown origin) at 1 uM by Ambit Kinomescan binding assay relative to control; values are per cent of control
T2 sequence (whole entry): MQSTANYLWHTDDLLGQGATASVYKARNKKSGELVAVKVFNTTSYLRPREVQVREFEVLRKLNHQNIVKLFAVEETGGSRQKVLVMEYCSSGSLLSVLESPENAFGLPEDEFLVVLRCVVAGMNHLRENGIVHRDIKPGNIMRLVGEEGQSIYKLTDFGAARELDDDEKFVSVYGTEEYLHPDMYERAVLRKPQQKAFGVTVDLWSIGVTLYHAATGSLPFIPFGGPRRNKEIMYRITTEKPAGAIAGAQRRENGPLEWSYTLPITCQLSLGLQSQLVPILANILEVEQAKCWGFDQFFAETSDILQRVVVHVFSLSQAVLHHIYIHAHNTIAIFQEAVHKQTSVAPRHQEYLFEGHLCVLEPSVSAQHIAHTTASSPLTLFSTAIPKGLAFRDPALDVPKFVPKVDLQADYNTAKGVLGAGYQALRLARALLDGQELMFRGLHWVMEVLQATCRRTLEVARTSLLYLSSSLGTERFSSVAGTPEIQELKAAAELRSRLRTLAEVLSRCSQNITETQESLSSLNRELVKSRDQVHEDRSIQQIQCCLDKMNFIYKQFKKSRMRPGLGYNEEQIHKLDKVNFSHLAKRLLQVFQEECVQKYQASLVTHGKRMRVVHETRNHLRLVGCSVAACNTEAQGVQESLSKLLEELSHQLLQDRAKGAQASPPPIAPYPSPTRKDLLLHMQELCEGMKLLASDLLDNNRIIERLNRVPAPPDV

[5] = target: Maternal embryonic leucine zipper kinase (Homo sapiens) (UniProt Q14680); assay: Inhibition of MELK Lys2 labeling site in human A-375 cells at 0.5 uM by KiNativ Profiling analysis relative to control; format: cell-based
[6] = target: Cyclin-dependent kinase 5 (Homo sapiens) (UniProt Q00535); assay: Inhibition of CDK5 Lys1 labeling site in human A-375 cells at 0.5 uM by KiNativ Profiling analysis relative to control; format: cell-based
[7] = target: 1-phosphatidylinositol 3-phosphate 5-kinase (Homo sapiens) (UniProt Q9Y2I7); assay: Inhibition of PIP5K3 ATP labeling site in human Huh-7 cells at 10 uM by KiNativ Profiling analysis relative to control; format: cell-based
[8] = target: Cyclin-dependent kinase 8 (Homo sapiens) (UniProt P49336); assay: Inhibition of CDK8 Lys2 labeling site in human A-375 cells at 0.5 uM by KiNativ Profiling analysis relative to control; format: cell-based
[9] = target: Mitogen-activated protein kinase kinase kinase 20 (Homo sapiens, UniProt Q9NYL2); assay: Inhibition of ZAK K1 labeling site in human Huh-7 cells at 10 uM by KiNativ Profiling analysis relative to control; format: cell-based
[10] = target: Mitogen-activated protein kinase 9 (Homo sapiens, UniProt P45984); assay: Inhibition of JNK2 (unknown origin) at 10 uM by Ambit Kinomescan binding assay relative to control
[11] = target: Tyrosine-protein kinase CSK (Homo sapiens, UniProt P41240); assay: Inhibition of CSK ACT labeling site harbouring VSDFGLTKEASSTQDTGK in human A-375 cells at 5 uM by KiNativ Profiling analysis relative to control; format: cell-based
Chain of Tyrosine-protein kinase CSK (P41240 2-450 limits assumed): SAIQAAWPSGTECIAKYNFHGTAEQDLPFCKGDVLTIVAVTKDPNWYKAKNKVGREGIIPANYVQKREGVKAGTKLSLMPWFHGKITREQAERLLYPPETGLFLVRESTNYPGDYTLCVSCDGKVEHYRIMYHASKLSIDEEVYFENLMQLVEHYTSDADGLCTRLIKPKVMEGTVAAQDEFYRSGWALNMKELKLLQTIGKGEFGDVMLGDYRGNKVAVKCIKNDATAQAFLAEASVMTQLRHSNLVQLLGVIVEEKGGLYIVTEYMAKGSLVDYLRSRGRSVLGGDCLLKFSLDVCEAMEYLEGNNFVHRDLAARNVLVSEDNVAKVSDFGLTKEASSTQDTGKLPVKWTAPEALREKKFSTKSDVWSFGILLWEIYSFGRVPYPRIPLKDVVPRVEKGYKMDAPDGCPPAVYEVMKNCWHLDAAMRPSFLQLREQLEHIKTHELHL

Chain of Cyclin-dependent kinase 5 (Homo sapiens) (Q00535 whole entry, looked up): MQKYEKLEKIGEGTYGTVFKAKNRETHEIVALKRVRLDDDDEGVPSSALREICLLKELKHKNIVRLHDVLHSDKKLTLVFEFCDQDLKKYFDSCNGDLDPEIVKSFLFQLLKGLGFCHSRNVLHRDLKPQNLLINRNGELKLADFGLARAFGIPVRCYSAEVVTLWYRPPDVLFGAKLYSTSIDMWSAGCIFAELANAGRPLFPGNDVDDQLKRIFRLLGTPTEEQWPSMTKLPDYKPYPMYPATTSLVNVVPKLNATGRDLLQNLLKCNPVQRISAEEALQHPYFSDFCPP
Chain of Microtubule-associated serine/threonine-protein kinase 3 (Homo sapiens) (O60307 whole entry): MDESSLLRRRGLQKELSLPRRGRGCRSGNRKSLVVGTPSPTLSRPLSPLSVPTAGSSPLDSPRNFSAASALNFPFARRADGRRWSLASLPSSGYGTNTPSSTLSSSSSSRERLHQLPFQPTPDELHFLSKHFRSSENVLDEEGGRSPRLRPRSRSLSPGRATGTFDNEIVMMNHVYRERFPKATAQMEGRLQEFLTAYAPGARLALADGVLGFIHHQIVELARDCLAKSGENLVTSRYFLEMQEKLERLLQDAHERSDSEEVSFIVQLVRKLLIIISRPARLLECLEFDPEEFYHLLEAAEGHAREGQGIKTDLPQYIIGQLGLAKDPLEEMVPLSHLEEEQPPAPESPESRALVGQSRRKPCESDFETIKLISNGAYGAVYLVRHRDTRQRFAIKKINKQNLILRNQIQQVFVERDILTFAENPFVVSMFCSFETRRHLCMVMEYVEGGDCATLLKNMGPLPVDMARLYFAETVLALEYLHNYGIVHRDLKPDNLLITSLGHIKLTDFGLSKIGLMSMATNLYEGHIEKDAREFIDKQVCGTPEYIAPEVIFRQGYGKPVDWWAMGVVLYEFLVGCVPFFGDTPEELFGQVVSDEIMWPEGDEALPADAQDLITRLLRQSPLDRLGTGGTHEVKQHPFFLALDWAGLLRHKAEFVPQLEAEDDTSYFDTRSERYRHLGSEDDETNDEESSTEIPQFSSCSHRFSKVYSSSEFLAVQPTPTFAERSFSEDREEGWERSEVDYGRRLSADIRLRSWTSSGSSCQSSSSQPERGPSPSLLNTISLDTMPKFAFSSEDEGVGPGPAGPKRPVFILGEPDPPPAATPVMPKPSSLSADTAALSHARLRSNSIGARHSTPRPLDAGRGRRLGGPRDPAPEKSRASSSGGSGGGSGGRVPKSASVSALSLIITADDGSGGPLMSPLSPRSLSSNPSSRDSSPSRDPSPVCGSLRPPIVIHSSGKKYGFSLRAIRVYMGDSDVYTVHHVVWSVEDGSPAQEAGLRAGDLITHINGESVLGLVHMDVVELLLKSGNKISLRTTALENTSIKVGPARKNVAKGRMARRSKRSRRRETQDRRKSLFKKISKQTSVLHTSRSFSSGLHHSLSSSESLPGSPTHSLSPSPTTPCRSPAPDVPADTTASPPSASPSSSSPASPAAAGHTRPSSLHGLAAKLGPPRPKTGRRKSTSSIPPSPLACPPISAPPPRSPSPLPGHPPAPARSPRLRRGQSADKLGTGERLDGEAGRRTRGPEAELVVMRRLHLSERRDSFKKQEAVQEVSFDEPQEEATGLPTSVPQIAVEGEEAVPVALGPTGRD
Chain of Mitogen-activated protein kinase 9 (P45984 whole entry, looked up): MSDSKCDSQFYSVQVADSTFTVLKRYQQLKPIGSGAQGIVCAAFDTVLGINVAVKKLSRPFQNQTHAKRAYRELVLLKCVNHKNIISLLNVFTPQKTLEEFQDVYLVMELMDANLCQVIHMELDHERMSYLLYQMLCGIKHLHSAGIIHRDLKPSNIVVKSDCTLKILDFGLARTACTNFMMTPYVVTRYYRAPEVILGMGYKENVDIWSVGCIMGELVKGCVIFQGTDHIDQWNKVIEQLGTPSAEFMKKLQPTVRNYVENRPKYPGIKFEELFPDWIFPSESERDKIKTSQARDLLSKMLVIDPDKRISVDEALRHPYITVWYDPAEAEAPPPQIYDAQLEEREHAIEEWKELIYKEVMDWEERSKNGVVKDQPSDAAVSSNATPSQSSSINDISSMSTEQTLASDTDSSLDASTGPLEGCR
Chain of Cyclin-dependent kinase 8 (Homo sapiens) (P49336 whole entry): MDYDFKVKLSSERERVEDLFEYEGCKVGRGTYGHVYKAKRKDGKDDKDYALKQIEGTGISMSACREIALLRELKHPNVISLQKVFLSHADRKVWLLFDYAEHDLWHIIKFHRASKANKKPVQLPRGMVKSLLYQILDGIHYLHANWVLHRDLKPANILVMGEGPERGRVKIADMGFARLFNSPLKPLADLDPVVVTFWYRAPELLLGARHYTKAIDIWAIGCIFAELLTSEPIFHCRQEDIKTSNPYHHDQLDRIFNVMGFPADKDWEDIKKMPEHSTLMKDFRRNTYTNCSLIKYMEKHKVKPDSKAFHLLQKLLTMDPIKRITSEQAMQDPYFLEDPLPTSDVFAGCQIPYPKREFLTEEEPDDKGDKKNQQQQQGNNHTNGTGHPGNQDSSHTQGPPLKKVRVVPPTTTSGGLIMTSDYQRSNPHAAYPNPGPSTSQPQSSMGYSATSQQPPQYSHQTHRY
Chain of 1-phosphatidylinositol 3-phosphate 5-kinase (Homo sapiens) (Q9Y2I7 whole entry): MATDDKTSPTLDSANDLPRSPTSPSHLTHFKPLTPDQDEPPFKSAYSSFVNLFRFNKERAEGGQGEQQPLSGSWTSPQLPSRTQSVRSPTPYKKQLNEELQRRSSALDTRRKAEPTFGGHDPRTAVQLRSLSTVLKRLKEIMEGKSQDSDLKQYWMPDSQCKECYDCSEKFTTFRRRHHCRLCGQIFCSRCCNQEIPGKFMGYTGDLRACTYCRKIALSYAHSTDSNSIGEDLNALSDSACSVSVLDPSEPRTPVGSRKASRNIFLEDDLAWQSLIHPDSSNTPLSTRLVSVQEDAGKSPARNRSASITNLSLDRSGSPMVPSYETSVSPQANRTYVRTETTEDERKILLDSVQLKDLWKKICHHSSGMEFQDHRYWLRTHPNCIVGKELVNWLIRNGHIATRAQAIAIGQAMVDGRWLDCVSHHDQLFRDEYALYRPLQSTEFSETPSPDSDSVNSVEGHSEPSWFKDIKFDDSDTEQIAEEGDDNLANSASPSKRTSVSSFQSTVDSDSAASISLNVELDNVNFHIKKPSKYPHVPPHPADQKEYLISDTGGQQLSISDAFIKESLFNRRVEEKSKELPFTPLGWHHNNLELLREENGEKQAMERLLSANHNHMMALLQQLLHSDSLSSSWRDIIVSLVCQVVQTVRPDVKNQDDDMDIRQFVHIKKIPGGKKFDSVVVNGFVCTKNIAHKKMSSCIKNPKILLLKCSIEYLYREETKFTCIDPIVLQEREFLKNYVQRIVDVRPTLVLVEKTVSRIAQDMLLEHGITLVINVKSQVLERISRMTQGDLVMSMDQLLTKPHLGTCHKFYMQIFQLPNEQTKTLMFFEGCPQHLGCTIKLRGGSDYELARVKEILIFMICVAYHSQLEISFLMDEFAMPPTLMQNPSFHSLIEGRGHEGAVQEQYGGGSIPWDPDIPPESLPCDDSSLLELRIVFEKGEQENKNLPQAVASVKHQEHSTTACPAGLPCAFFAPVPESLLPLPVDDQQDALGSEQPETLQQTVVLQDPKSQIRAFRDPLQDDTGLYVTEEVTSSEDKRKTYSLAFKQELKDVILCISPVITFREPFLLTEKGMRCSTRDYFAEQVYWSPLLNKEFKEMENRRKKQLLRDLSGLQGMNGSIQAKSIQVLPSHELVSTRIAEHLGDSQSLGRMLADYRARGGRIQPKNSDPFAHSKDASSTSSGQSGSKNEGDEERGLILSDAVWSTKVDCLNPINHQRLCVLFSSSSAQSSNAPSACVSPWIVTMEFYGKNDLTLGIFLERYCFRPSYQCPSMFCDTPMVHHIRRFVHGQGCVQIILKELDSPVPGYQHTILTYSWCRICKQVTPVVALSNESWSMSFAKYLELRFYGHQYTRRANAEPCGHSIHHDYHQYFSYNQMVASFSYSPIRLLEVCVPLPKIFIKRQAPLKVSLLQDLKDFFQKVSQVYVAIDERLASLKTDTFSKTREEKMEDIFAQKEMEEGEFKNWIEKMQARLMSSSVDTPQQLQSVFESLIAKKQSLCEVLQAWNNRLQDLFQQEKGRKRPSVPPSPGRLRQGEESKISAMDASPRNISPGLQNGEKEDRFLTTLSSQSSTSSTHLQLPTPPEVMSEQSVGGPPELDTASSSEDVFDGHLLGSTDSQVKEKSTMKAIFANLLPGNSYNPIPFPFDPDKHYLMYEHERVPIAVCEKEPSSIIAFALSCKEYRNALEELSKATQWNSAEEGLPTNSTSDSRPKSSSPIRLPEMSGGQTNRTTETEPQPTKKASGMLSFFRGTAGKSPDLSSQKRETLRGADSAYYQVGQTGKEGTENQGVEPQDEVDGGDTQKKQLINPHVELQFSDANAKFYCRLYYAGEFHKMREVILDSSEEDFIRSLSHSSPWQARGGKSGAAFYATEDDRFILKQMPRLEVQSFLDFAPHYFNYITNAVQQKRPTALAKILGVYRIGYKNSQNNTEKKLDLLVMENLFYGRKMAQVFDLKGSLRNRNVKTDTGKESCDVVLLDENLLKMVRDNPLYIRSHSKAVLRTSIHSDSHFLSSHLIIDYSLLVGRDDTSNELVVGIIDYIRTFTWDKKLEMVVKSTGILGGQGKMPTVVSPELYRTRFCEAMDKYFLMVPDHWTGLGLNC

## CNc1cc(Oc2cc(C(=O)Nc3cc(N4CCN(C)CC4)cc(C(F)(F)F)c3)ccc2C)ncn1
[1]
  inhibition: 0.2%
[2]
  inhibition: -0.3%

## CCN1CCN(Cc2ccc(NC(=O)c3ccc(C)c(/C=C/c4cnc5[nH]ccc5c4OC)c3)cc2C(F)(F)F)CC1
[3]
  inhibition: 100%
[4]
  residual activity: 100%
[5]
  inhibition: 1.9%
[6]
  inhibition: -4.1%

## CCN1CCN(Cc2ccc(NC(=O)c3ccc(C)c(Oc4ccnc5[nH]ccc45)c3)cc2C(F)(F)F)CC1
[7]
  inhibition: 13.8%
[8]
  inhibition: 51.2%
[9]
  inhibition: 83.4%
[10]
  inhibition: 0%
[11]
  inhibition: 79%
